According to patent US8946234B2, “Halogen-substituted compounds” (Bayer CropScience AG, priority 2008, dated 2015):

Test: physchem
Assay type: physicochemical
Conditions: not given
Outline: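 Reversed-phase C18 HPLC (50×4.6 mm, 1.8 micron), 55 °C, 2.0 ml/min, acetonitrile/water with formic acid. Linear gradient 10% to 95% acetonitrile over 4.25 min, then 95% for 1.25 min. logP derived from retention per EEC Directive 79/831 Annex V.A8; MS detection.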

Structure (SMILES)	logP
Cn1nc(C(F)(F)C(F)(F)F)c(C(F)(F)F)c1C(=O)Nc1cc(Br)cc(C(=O)NCc2ccccc2)c1 [Ik-222]	4.35^a)
Cn1nc(C(F)(F)C(F)(F)F)c(C(F)(F)F)c1C(=O)Nc1cc(F)c(F)c(C(=O)NCC(F)(F)F)c1 [Ik-141]	3.89^a)
Cn1nc(C(F)(F)C(F)(F)F)c(C(F)(F)F)c1C(=O)Nc1cc(C(=O)NCC(F)(F)F)c(Cl)cc1F [Ik-144]	3.73^a)
O=C(NCC=CCl)c1cc(NC(=O)c2ncc(C(F)(F)F)cc2Cl)ccc1Cl [Ii-4]	2.93^a)
CC(C)(F)n1nc(C(F)C(F)(F)F)c(C(F)(F)F)c1C(=O)Nc1ccc(Cl)c(C(=O)NC2CC2)c1 (centres unmarked) [Ik-100]	3.39^a)
Cn1nc(C(F)(F)OC(F)(F)C(F)(F)OC(F)(F)F)c(Br)c1C(=O)Nc1ccc(Cl)c(C(=O)NC2CC2)c1 [Ik-117]	4.31^a)
Cc1nc(C(F)(F)F)ncc1C(=O)Nc1ccc(Cl)c(C(=O)NCC=CCl)c1 [Ib-21]	2.69^a)
CC(NC(=O)c1cc(NC(=O)c2c(I)c(C(F)(F)C(F)(F)C(F)(F)C(F)(F)F)nn2C)ccc1Cl)C1CC1 (centres unmarked) [Ik-267]	4.38^a)
O=C(NCc1ccccc1)c1cc(NC(=O)c2cnc(C(F)(F)C(F)(F)F)nc2C(F)(F)F)ccc1Cl [Ib-11]	3.78^a)
C=CCc1c(C(F)(F)C(F)(F)F)nn(C)c1C(=O)Nc1ccc(Cl)c(C(=O)NC2CC2)c1 [Ik-262]	3.37^a)
C=CCNC(=O)c1cc(NC(=O)c2ccc(C(F)(F)F)nc2Cl)c(C)cc1Cl [Ir-7]	2.68^a)
O=C(NCC(F)(F)F)c1cc(NC(=O)c2cnc(C(F)(F)C(F)(F)F)nc2C2CC2)ccc1Cl [Ib-31]	3.65^a)
CC(C)N(C(=O)c1c(C(F)(F)F)c(C(F)(F)C(F)(F)F)nn1C)c1ccc(Cl)c(C(=O)NCC(F)(F)F)c1 [Ik-139]	4.02^a)
Cn1nc(C(F)(F)C(F)(F)F)c(C(F)(F)F)c1C(=O)Nc1cc(Br)c(I)c(C(=O)NCc2ccccc2)c1 [Ik-211]	4.49^a)
Cc1nc(C(F)(F)F)ccc1C(=O)Nc1ccc(Cl)c(C(=O)NCC(F)(F)F)c1 [Ir-11]	2.67^a)
Cn1nc(C(F)(F)C(F)(F)F)c(C(F)(F)F)c1C(=O)Nc1ccc(F)c(C(=O)NC2CC2F)c1 (centres unmarked) [Ik-168]	3.35^a)
Cn1nc(C(F)(F)C(F)(F)F)c(C(F)(F)F)c1C(=O)Nc1ccc(Br)c(C(=O)NCC(F)(F)F)c1 [Ik-173]	3.77^a)
Cn1nc(C(F)(F)C(F)(F)F)c(C(F)(F)F)c1C(=O)Nc1ccc(Cl)c(C(=O)NCC(F)(F)F)c1 [Ik-87]	3.67^a)

Structure (SMILES)	logP
Cn1nc(C(F)(F)C(F)(F)F)c(I)c1C(=O)Nc1ccc(Cl)c(C(=O)NCC(F)(F)F)c1 [Ik-99]	3.52^a)
CNC(=O)c1cc(NC(=O)c2ccc(C(F)(F)F)nc2Cl)ccc1Cl [Ir-6]	2.16^a)
Cn1nc(C(F)(F)C(F)(F)F)c(C(F)(F)F)c1C(=O)Nc1cc(C(=O)NC2CC2)c(Cl)cc1Cl [Ik-147]	3.61^a)
O=C(NCc1ccccc1)c1cc(NC(=O)c2ncc(C(F)(F)F)cc2Cl)ccc1Cl [Ii-5]	3.17^a)
Cn1nc(C(F)(F)F)c(Br)c1C(=O)Nc1ccc(Cl)c(C(=O)NCc2ccccc2)c1 [Ik-23]	3.44^a)
Cn1nc(C(F)(F)C(F)(F)F)c(Br)c1C(=O)Nc1ccc(Cl)c(C(=O)NC2CC2)c1 [Ik-26]	3.22^a)
Cn1nc(C(F)(F)C(F)(F)F)c(C(F)(F)F)c1C(=O)Nc1ccc(Cl)c(C(=O)NCC=CCl)c1 [Ik-83]	3.72^a)
Cn1nc(-c2ccccc2Cl)c(Br)c1C(=O)Nc1ccc(Cl)c(C(=O)NCC(F)(F)F)c1 [Ik-252]	3.41^a)
O=C(NCc1ccccc1)c1cc(NC(=O)c2cnc(C(F)(F)C(F)(F)C(F)(F)F)nc2C(F)(F)F)ccc1Cl [Ib-18]	4.13^a)
Cn1nc(C(F)(F)C(F)(F)C(F)(F)C(F)(F)F)c(I)c1C(=O)Nc1ccc(Cl)c(C(=O)NC2CCC2)c1 [Ik-268]	4.16^a)
C=CCNC(=O)c1cc(NC(=O)c2ccc(C(F)(F)F)nc2C)c(C)cc1Cl [Ir-8]	2.45^a)
CN(C(=O)c1cnc(C(F)(F)C(F)(F)F)nc1C(F)(F)F)c1ccc(Cl)c(C(=O)NC2CC2)c1 [Ib-38]	3.23^a)
C=CCNC(=O)c1cc(NC(=O)c2c(C(F)(F)F)c(C(F)(F)C(F)(F)F)nn2C)ccc1Cl [Ik-93]	3.44^a)
Cc1nc(C(F)(F)F)ncc1C(=O)Nc1ccc(Cl)c(C(=O)NC2CC2)c1 [Ib-19]	2.24v
Cn1nc(C(F)(F)C(F)(F)C(F)(F)C(F)(F)F)c(I)c1C(=O)Nc1ccc(Cl)c(C(=O)NC2CC2)c1 [Ik-265]	3.90^a)
Cn1nc(-c2ccc(OC(F)(F)F)cc2)c(Br)c1C(=O)Nc1ccc(Cl)c(C(=O)NC2CC2)c1 [Ik-251]	3.76^a)
Cn1nc(C(F)(F)C(F)(F)F)c(C(F)(F)F)c1C(=O)Nc1cc(Cl)c(I)c(C(=O)NCC(F)(F)F)c1 [Ik-206]	4.18^a)
O=C(NCC(F)(F)F)c1cc(NC(=O)c2cnc(C(F)(F)C(F)(F)F)nc2C(F)(F)F)ccc1Cl [Ib-9]	3.53^a)

Same assay, conditions: HPLC phase inversion (reversed-phase) C18 column, HPLC method a), eluent acetonitrile/water with formic acid; read-out: logP

chromatographic logP	Structure (SMILES)
4.05	COC(=O)c1cc(NC(=O)c2c(C(F)(F)F)c(C(F)(F)C(F)(F)F)nn2C)ccc1Cl [Methyl 2-chloro-5-({[1-methyl-3-(pentafluoroethyl)-4-(trifluoromethyl)-1H-pyrazol-5-yl]carbonyl}amino)benzoate]
2.43	Cn1nc(C(F)(Cl)C(F)(F)F)c(Br)c1C(=O)O (centres unmarked) [4-Bromo-1-methyl-3-(1-chloro-1,2,2,2-tetrafluoroethyl)-1H-pyrazole-5-carboxylic acid]
2	O=C(O)c1[nH]nc(C(F)(F)C(F)(F)F)c1C(F)(F)F [3-(Pentafluoroethyl)-4-(trifluoromethyl)-1H-pyrazole-5-carboxylic acid]
2.46	Cn1ccc(C(F)(Cl)C(F)(F)F)n1 (centres unmarked) [1-Methyl-3-(1-chloro-1,2,2,2-tetrafluoroethyl)-1H-pyrazole]

Test: logP by HPLC on a C18 phase inversion column, EEC Directive 79/831 Annex V.A8, method b) (HP1100, 5-95% acetonitrile in 1.70 min)
Assay type: physicochemical
Conditions: HPLC method b)
Description: ^b) Note regarding the determination of the log P values and mass detection: The log P values given were determined in accordance with EEC Directive 79/831 Annex V.A8 by HPLC (High Performance Liquid Chromatography) on a phase inversion column (C18). HP1100; 50*4.6 Zorbax Eclipse Plus C18 1.8 micron; eluent A: acetonitrile (0.1% formic acid); eluent B: water (0.08% formic acid); linear gradient from 5% acetonitrile to 95% acetonitrile in 1.70 min, then 95% acetonitrile for a further 1.00 min; oven temperature 55° C.; flow: 2.0 ml/min. The mass detection is carried out via the mass detector Micromass ZQ2000 from Waters.

Structure (SMILES)	logP
Cn1nc(C(F)(F)C(F)(F)F)c(C(F)(F)F)c1C(=O)Nc1ccc(Cl)c(C(=O)NCc2ccccc2F)c1 [Ik-52]	3.73^b)
Cn1nc(C(F)(F)C(F)(F)F)c(C(F)(F)F)c1C(=O)Nc1ccc(Cl)c(C(=O)NCc2ccncc2)c1 [Ik-313]	1.93^b)
Cn1nc(C(F)(F)C(F)(F)F)c(C(F)(F)F)c1C(=O)Nc1ccc(Cl)c(C(=O)NCc2nc(C(F)(F)F)cs2)c1 [Ik-273]	3.75^b)
Cn1nc(C(F)(F)C(F)(F)F)c(C(F)(F)F)c1C(=O)Nc1ccc(Cl)c(C(=O)NCCC(F)(F)F)c1 [Ik-291]	3.53^b)
Cn1nc(C(F)(F)C(F)(F)F)c(C(F)(F)F)c1C(=O)Nc1ccc(Cl)c(C(=O)NC(C)(C)C=C(Cl)Cl)c1 [Ik-44]	4.28^b)
Cn1nc(C(F)(F)C(F)(F)F)c(C(F)(F)F)c1C(=O)Nc1ccc(Cl)c(C(=O)NCc2ccon2)c1 [Ik-43]	3.02^b)
C=C(C)CNC(=O)c1cc(NC(=O)c2c(C(F)(F)F)c(C(F)(F)C(F)(F)F)nn2C)ccc1Cl [Ik-50]	3.53^b)
CC(CC(F)(F)F)NC(=O)c1cc(NC(=O)c2c(C(F)(F)F)c(C(F)(F)C(F)(F)F)nn2C)ccc1Cl (centres unmarked) [Ik-299]	3.63^b)
Cn1nc(C(F)(F)C(F)(F)F)c(C(F)(F)F)c1C(=O)Nc1ccc(Cl)c(C(=O)NC2CCOCC2)c1 [Ik-285]	3.06^b)
Cc1ccc(CNC(=O)c2cc(NC(=O)c3c(C(F)(F)F)c(C(F)(F)C(F)(F)F)nn3C)ccc2Cl)cc1 [Ik-306]	3.94^b)
